# Assays:
# Type in all cases: functional, organism-based
# Plasmodium falciparum [1] = experiment: Antimalarial activity against Plasmodium falciparum IMT 9881 assessed as incorporation of [3H]hypoxanthine after 48 hrs by scintillation counter
# Plasmodium falciparum [2] = experiment: Antimalarial activity against Plasmodium falciparum IMT Vol assessed as incorporation of [3H]hypoxanthine after 48 hrs by scintillation counter
# Plasmodium falciparum [3] = experiment: Antimalarial activity against Plasmodium falciparum IMT 10336 assessed as incorporation of [3H]hypoxanthine after 48 hrs by scintillation counter
# Plasmodium falciparum [4] = experiment: Antimalarial activity against Plasmodium falciparum PA assessed as incorporation of [3H]hypoxanthine after 48 hrs by scintillation counter
# Plasmodium falciparum [5] = experiment: Antimalarial activity against Plasmodium falciparum FCR3 assessed as incorporation of [3H]hypoxanthine after 48 hrs by scintillation counter
# Plasmodium falciparum [6] = experiment: Antimalarial activity against Plasmodium falciparum IMT L1 assessed as incorporation of [3H]hypoxanthine after 48 hrs by scintillation counter
# Plasmodium falciparum [7] = experiment: Antimalarial activity against Plasmodium falciparum W2 assessed as incorporation of [3H]hypoxanthine after 48 hrs by scintillation counter
# Plasmodium falciparum [8] = experiment: Antimalarial activity against Plasmodium falciparum IMT 10500 assessed as incorporation of [3H]hypoxanthine after 48 hrs by scintillation counter
# Plasmodium falciparum [9] = experiment: Antimalarial activity against Plasmodium falciparum HB3 assessed as incorporation of [3H]hypoxanthine after 48 hrs by scintillation counter
# Plasmodium falciparum [10] = experiment: Antimalarial activity against Plasmodium falciparum IMT K4 assessed as incorporation of [3H]hypoxanthine after 48 hrs by scintillation counter
# Plasmodium falciparum [11] = experiment: Antimalarial activity against Plasmodium falciparum IMT Bres assessed as incorporation of [3H]hypoxanthine after 48 hrs by scintillation counter
# Plasmodium falciparum [12] = experiment: Antimalarial activity against Plasmodium falciparum 106/1 assessed as incorporation of [3H]hypoxanthine after 48 hrs by scintillation counter
# Plasmodium falciparum [13] = experiment: Antimalarial activity against Plasmodium falciparum D6 assessed as incorporation of [3H]hypoxanthine after 48 hrs by scintillation counter
# Plasmodium falciparum [14] = experiment: Antimalarial activity against Plasmodium falciparum IMT A4 assessed as incorporation of [3H]hypoxanthine after 48 hrs by scintillation counter
# Plasmodium falciparum [15] = experiment: Antimalarial activity against Plasmodium falciparum IMT 8425 assessed as incorporation of [3H]hypoxanthine after 48 hrs by scintillation counter
# Plasmodium falciparum [16] = experiment: Antimalarial activity against Plasmodium falciparum IMT Guy assessed as incorporation of [3H]hypoxanthine after 48 hrs by scintillation counter
# Plasmodium falciparum [17] = experiment: Antimalarial activity against Plasmodium falciparum IMT K14 assessed as incorporation of [3H]hypoxanthine after 48 hrs by scintillation counter
# Plasmodium falciparum [18] = experiment: Antimalarial activity against Plasmodium falciparum IMT 16332 assessed as incorporation of [3H]hypoxanthine after 48 hrs by scintillation counter
# Plasmodium falciparum [19] = experiment: Antimalarial activity against Plasmodium falciparum FCM29 assessed as incorporation of [3H]hypoxanthine after 48 hrs by scintillation counter
# Plasmodium falciparum [20] = experiment: Antimalarial activity against Plasmodium falciparum IMT 31 assessed as incorporation of [3H]hypoxanthine after 48 hrs by scintillation counter
# Plasmodium falciparum [21] = experiment: Antimalarial activity against Plasmodium falciparum IMT K2 assessed as incorporation of [3H]hypoxanthine after 48 hrs by scintillation counter
# Plasmodium falciparum [22] = experiment: Antimalarial activity against Plasmodium falciparum 3D7 assessed as incorporation of [3H]hypoxanthine after 48 hrs by scintillation counter
SMILES,IC50 (Plasmodium falciparum [1]),IC50 (Plasmodium falciparum [2]),IC50 (Plasmodium falciparum [3]),IC50 (Plasmodium falciparum [4]),IC50 (Plasmodium falciparum [5]),IC50 (Plasmodium falciparum [6]),IC50 (Plasmodium falciparum [7]),IC50 (Plasmodium falciparum [8]),IC50 (Plasmodium falciparum [9]),IC50 (Plasmodium falciparum [10]),IC50 (Plasmodium falciparum [11]),IC50 (Plasmodium falciparum [12]),IC50 (Plasmodium falciparum [13]),IC50 (Plasmodium falciparum [14]),IC50 (Plasmodium falciparum [15]),IC50 (Plasmodium falciparum [16]),IC50 (Plasmodium falciparum [17]),IC50 (Plasmodium falciparum [18]),IC50 (Plasmodium falciparum [19]),IC50 (Plasmodium falciparum [20]),also measured
C[C@H]1[C@@H](O)O[C@@H]2O[C@@]3(C)CC[C@H]4[C@H](C)CC[C@@H]1[C@@]24OO3 [ARTENIMOL],0.9 nM,0.9 nM,0.9 nM,0.9 nM,0.9 nM,0.9 nM,0.9 nM,0.9 nM,0.9 nM,0.9 nM,0.9 nM,0.9 nM,0.9 nM,0.9 nM,0.9 nM,0.9 nM,0.9 nM,0.9 nM,0.9 nM,0.9 nM,IC50 (Plasmodium falciparum [21]): 0.9 nM
O=C1C(O)=C([C@H]2CC[C@H](c3ccc(Cl)cc3)CC2)C(=O)c2ccccc21 [ATOVAQUONE],2.4 nM,2.4 nM,2.4 nM,2.4 nM,2.4 nM,2.4 nM,2.4 nM,2.4 nM,2.4 nM,2.4 nM,2.4 nM,2.4 nM,2.4 nM,2.4 nM,2.4 nM,2.4 nM,2.4 nM,2.4 nM,2.4 nM,2.4 nM,IC50 (Plasmodium falciparum [22]): 2.4 nM; IC50 (Plasmodium falciparum [21]): 2.4 nM
CCNCc1cc(Nc2ccnc3cc(Cl)ccc23)ccc1O [DESETHYL AMODIAQUINE],23 nM,23 nM,23 nM,23 nM,23 nM,23 nM,23 nM,23 nM,23 nM,23 nM,23 nM,23 nM,23 nM,23 nM,23 nM,23 nM,23 nM,23 nM,23 nM,23 nM,IC50 (Plasmodium falciparum [21]): 23 nM

# — ChEMBL document CHEMBL1649448, “Atorvastatin is a promising partner for antimalarial drugs in treatment of Plasmodium falciparum malaria” (Antimicrob Agents Chemother, 2009)
